Laboratory results published in ChEMBL document CHEMBL1909046, “DrugMatrix in vitro pharmacology data”.

Columns and labels:
Thromboxane-A synthase = molecular target: T1, Thromboxane-A synthase (Homo sapiens, UniProt P24557); experiment: biochemical; assay type: tissue-based, Platelet; details: platelet;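 note: enzyme inhibition assay with PGH2 supplied as substrate; in other assays of this panel Not Active means under 50% inhibition at 10 µM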
T1 sequence (P24557 whole entry): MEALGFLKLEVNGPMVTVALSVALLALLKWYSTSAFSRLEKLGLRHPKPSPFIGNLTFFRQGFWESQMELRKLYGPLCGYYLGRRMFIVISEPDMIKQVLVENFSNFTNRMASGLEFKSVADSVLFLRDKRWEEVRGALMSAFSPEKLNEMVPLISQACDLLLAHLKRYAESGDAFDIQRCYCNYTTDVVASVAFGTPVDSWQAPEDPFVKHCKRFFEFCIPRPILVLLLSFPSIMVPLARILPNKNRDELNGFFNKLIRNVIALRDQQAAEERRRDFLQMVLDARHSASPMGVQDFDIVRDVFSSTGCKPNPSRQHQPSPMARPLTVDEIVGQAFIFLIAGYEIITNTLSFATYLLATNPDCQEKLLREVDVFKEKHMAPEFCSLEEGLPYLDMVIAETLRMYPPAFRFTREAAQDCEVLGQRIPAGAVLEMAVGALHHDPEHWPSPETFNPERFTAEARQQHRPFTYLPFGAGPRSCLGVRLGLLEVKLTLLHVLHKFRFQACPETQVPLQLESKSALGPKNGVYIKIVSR

[1] = molecular target: Voltage-gated inwardly rectifying potassium channel KCNH2 (Homo sapiens, UniProt Q12809); details: hek293; note: in other assays of this panel Not Active means under 50% inhibition at 10 µM
[2] = DRUGMATRIX: Nicotinic Acetylcholine radioligand binding (ligand: [125I] Epibatidine); assay type: cell membranes, Membrane; details: imr-32; Not Active = under 50% inhibition at 10 µM
Cathepsin G = molecular target: T2, Cathepsin G (Homo sapiens, UniProt P08311); assay type: tissue-based; details: neutrophil;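 note: inhibition of Cathepsin G enzyme activity, tested on an AMC-conjugated peptide substrate; in other assays of this panel Not Active means under 50% inhibition at 10 µM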
T2 sequence (P08311 whole entry): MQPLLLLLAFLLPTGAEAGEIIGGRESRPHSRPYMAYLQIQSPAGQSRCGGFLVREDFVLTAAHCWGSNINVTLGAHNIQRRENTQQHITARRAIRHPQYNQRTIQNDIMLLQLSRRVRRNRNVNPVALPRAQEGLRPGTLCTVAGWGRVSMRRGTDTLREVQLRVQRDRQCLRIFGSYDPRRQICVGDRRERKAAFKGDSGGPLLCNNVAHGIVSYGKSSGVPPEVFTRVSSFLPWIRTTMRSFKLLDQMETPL

Cytochrome P450 2D6 = Cytochrome P450 2D6 (Homo sapiens, UniProt P10635); details: bti-tn-5b1-4; note: in other assays of this panel Not Active means under 50% inhibition at 10 µM
[3] = molecular target: Epidermal growth factor receptor (Homo sapiens, UniProt P00533); experiment: DRUGMATRIX: Protein Tyrosine Kinase, EGF Receptor enzyme inhibition (substrate: Poly(Glu:Tyr)); assay type: cell-based, Insect cells; details: insect cells; Not Active = under 50% inhibition at 10 µM
[4] = molecular target: T3, Neuropeptide Y receptor type 2 (Homo sapiens, UniProt P49146); assay type: cell membranes, Membrane; details: kan-ts; note: in other assays of this panel Not Active means under 50% inhibition at 10 µM
T3 sequence (P49146 whole entry): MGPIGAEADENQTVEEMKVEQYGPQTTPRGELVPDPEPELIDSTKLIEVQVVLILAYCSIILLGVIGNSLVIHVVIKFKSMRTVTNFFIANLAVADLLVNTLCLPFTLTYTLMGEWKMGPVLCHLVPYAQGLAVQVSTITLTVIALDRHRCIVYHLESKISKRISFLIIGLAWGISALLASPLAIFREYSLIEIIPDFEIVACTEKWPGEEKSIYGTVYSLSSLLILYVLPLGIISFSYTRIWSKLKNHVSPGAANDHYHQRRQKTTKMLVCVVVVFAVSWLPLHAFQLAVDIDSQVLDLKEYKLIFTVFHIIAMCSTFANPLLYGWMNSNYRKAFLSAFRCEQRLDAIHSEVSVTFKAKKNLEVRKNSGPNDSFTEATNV

[5] = molecular target: Protein kinase C alpha type (Homo sapiens, UniProt P17252); assay type: cell-based; details: sf9

Voltage-gated inwardly rectifying potassium channel KCNH2, sequence (Q12809 whole entry): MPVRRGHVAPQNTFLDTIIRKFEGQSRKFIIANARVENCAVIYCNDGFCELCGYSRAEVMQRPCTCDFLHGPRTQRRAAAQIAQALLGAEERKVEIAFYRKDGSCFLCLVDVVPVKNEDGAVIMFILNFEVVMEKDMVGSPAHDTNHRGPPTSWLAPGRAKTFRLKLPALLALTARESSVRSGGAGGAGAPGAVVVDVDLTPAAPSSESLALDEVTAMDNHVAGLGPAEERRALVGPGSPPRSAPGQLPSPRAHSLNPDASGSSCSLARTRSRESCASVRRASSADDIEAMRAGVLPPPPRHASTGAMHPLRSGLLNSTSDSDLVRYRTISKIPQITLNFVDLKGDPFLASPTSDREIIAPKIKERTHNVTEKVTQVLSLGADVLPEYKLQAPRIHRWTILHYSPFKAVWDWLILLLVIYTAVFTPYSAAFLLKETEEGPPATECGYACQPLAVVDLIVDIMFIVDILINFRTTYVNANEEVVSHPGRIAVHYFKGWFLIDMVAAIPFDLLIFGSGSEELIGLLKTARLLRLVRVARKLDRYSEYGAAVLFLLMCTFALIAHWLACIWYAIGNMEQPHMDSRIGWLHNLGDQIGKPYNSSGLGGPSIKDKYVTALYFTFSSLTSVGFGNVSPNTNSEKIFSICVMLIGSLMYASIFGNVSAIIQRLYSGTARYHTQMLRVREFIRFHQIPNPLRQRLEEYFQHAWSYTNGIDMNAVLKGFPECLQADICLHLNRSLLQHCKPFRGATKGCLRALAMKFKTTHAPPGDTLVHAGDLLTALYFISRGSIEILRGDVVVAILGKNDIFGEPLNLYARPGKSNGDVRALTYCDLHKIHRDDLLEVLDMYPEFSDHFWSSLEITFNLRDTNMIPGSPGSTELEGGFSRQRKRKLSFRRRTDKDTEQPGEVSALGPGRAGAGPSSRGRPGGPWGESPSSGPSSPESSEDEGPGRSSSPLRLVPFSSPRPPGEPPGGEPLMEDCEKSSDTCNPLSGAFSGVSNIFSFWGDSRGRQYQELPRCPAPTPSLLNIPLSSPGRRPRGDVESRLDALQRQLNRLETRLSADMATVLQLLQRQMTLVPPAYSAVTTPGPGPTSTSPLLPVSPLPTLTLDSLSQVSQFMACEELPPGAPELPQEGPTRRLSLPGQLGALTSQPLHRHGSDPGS
Cytochrome P450 2D6, sequence (P10635 whole entry): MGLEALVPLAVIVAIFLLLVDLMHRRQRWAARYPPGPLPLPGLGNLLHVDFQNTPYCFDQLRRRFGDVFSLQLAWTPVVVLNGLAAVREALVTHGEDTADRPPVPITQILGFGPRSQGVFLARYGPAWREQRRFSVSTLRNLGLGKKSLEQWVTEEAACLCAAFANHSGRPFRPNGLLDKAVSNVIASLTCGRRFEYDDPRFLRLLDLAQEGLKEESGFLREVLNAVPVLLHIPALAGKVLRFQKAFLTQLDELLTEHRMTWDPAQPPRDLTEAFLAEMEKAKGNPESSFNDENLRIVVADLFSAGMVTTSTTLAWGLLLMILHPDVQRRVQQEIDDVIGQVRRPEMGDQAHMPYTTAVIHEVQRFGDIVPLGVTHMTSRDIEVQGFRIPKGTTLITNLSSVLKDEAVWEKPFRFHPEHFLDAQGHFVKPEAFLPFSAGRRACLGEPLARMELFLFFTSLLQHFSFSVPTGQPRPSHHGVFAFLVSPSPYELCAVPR
Epidermal growth factor receptor, sequence (P00533 whole entry): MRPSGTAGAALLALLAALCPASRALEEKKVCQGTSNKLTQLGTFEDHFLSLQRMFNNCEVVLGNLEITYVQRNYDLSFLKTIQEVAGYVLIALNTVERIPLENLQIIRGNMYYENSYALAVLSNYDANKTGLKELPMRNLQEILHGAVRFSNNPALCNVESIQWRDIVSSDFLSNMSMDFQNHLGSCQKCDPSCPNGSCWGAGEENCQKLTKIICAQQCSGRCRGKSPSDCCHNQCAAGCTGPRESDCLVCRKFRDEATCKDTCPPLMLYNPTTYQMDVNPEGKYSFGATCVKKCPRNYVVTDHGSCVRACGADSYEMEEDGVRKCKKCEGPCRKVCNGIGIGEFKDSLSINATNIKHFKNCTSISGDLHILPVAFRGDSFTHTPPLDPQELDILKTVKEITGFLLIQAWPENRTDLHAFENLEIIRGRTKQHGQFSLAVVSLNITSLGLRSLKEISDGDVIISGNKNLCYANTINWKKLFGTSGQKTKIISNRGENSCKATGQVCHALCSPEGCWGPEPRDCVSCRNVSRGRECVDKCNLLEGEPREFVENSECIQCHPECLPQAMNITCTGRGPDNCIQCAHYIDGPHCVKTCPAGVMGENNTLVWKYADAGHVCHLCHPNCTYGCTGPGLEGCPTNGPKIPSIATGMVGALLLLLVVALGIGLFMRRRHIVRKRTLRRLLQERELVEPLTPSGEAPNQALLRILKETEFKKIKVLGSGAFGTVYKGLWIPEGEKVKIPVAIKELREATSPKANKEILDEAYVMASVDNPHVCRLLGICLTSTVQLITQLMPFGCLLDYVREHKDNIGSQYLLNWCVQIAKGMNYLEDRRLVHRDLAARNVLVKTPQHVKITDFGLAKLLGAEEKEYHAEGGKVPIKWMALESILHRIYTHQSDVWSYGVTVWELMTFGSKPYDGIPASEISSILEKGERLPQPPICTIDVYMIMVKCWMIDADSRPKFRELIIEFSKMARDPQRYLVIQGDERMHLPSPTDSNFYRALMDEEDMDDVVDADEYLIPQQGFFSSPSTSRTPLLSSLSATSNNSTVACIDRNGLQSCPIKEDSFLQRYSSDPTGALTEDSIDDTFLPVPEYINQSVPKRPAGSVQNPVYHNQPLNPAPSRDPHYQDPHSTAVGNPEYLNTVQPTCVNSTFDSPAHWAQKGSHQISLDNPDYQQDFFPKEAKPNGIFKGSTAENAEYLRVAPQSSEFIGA

CO/N=C(\C(=O)N[C@@H]1C(=O)N2C(C(=O)O)=C(COC(C)=O)CS[C@H]12)c1csc(N)n1 [CEFOTAXIME]
Not Active: IC50 (Thromboxane-A synthase) | IC50 [1] | Ki [1] | IC50 [2] | Ki [2] | IC50 (Cathepsin G) | IC50 (Cytochrome P450 2D6) | Ki (Cytochrome P450 2D6) | IC50 [3] | IC50 [4] | IC50 [5]

CNC1=Nc2ccc(Cl)cc2C(c2ccccc2)=[N+]([O-])C1 [CHLORDIAZEPOXIDE]
Not Active: IC50 (Thromboxane-A synthase) | IC50 [1] | Ki [1] | IC50 [2] | Ki [2] | IC50 (Cathepsin G) | IC50 (Cytochrome P450 2D6) | Ki (Cytochrome P450 2D6) | IC50 [3] | IC50 [4] | IC50 [5]

Cc1cc(O)cc(C)c1Cl [CHLOROXYLENOL]
Not Active: IC50 (Thromboxane-A synthase) | IC50 [1] | Ki [1] | IC50 [2] | Ki [2] | IC50 (Cathepsin G) | IC50 (Cytochrome P450 2D6) | Ki (Cytochrome P450 2D6) | IC50 [3] | IC50 [4] | IC50 [5]

CCCNC(=O)NS(=O)(=O)c1ccc(Cl)cc1 [CHLORPROPAMIDE]
Not Active: IC50 (Thromboxane-A synthase) | IC50 [1] | Ki [1] | IC50 [2] | Ki [2] | IC50 (Cathepsin G) | IC50 (Cytochrome P450 2D6) | Ki (Cytochrome P450 2D6) | IC50 [3] | IC50 [4] | IC50 [5]

NS(=O)(=O)c1cc(C2(O)NC(=O)c3ccccc32)ccc1Cl (stereo not given) [CHLORTHALIDONE]
Not Active: IC50 (Thromboxane-A synthase) | IC50 [1] | Ki [1] | IC50 [2] | Ki [2] | IC50 (Cathepsin G) | IC50 (Cytochrome P450 2D6) | Ki (Cytochrome P450 2D6) | IC50 [3] | IC50 [4] | IC50 [5]

O=C(O)CC(O)(CC(=O)O)C(=O)O [CITRIC ACID]
Not Active: IC50 (Thromboxane-A synthase) | IC50 [1] | Ki [1] | IC50 [2] | Ki [2] | IC50 (Cathepsin G) | IC50 (Cytochrome P450 2D6) | Ki (Cytochrome P450 2D6) | IC50 [3] | IC50 [4] | IC50 [5]

CC(C)NCC(O)c1ccccc1Cl (stereo not given) [CLORPRENALINE]
Not Active: IC50 (Thromboxane-A synthase) | IC50 [1] | Ki [1] | IC50 [2] | Ki [2] | IC50 (Cathepsin G) | IC50 (Cytochrome P450 2D6) | Ki (Cytochrome P450 2D6) | IC50 [3] | IC50 [4] | IC50 [5]

CN1C[C@@H]2C[C@H]1CN2c1cc2c(cc1F)c(=O)c(C(=O)O)cn2C1CC1 [DANOFLOXACIN]
Not Active: IC50 (Thromboxane-A synthase) | IC50 [1] | Ki [1] | IC50 [2] | Ki [2] | IC50 (Cathepsin G) | IC50 (Cytochrome P450 2D6) | Ki (Cytochrome P450 2D6) | IC50 [3] | IC50 [4] | IC50 [5]

COc1cccc2c1C(=O)c1c(O)c3c(c(O)c1C2=O)C[C@@](O)(C(C)=O)C[C@@H]3O[C@H]1C[C@H](N)[C@H](O)[C@H](C)O1 [DAUNORUBICIN]
Not Active: IC50 (Thromboxane-A synthase) | IC50 [1] | Ki [1] | IC50 [2] | Ki [2] | IC50 (Cathepsin G) | IC50 (Cytochrome P450 2D6) | Ki (Cytochrome P450 2D6) | IC50 [3] | IC50 [4] | IC50 [5]

O=C(O)c1cc(-c2ccc(F)cc2F)ccc1O [DIFLUNISAL]
Not Active: IC50 (Thromboxane-A synthase) | IC50 [1] | Ki [1] | IC50 [2] | Ki [2] | IC50 (Cathepsin G) | IC50 (Cytochrome P450 2D6) | Ki (Cytochrome P450 2D6) | IC50 [3] | IC50 [4] | IC50 [5]

C[S+](C)[O-] [DIMETHYL SULFOXIDE]
Not Active: IC50 (Thromboxane-A synthase) | IC50 [1] | Ki [1] | IC50 [2] | Ki [2] | IC50 (Cathepsin G) | IC50 (Cytochrome P450 2D6) | Ki (Cytochrome P450 2D6) | IC50 [3] | IC50 [4] | IC50 [5]

CC1=NN(c2ccccc2)C(=O)C1 [EDARAVONE]
Not Active: IC50 (Thromboxane-A synthase) | IC50 [1] | Ki [1] | IC50 [2] | Ki [2] | IC50 (Cathepsin G) | IC50 (Cytochrome P450 2D6) | Ki (Cytochrome P450 2D6) | IC50 [3] | IC50 [4] | IC50 [5]

CC(C)C[C@H]1C(=O)N2CCC[C@H]2[C@]2(O)O[C@](NC(=O)[C@@H]3C=C4c5cccc6[nH]cc(c56)C[C@H]4N(C)C3)(C(C)C)C(=O)N12 [ERGOCRYPTINE]
Not Active: IC50 (Thromboxane-A synthase) | IC50 [1] | Ki [1] | IC50 [2] | Ki [2] | IC50 (Cathepsin G) | IC50 (Cytochrome P450 2D6) | Ki (Cytochrome P450 2D6) | IC50 [3] | IC50 [4] | IC50 [5]

C[C@]12CC[C@@H]3c4ccc(O)cc4CC[C@H]3[C@@H]1C[C@@H](O)[C@@H]2O [ESTRIOL]
Not Active: IC50 (Thromboxane-A synthase) | IC50 [1] | Ki [1] | IC50 [2] | Ki [2] | IC50 (Cathepsin G) | IC50 (Cytochrome P450 2D6) | Ki (Cytochrome P450 2D6) | IC50 [3] | IC50 [4] | IC50 [5]

CC(O)(P(=O)(O)O)P(=O)(O)O [ETIDRONIC ACID]
Not Active: IC50 (Thromboxane-A synthase) | IC50 [1] | Ki [1] | IC50 [2] | Ki [2] | IC50 (Cathepsin G) | IC50 (Cytochrome P450 2D6) | Ki (Cytochrome P450 2D6) | IC50 [3] | IC50 [4] | IC50 [5]
